According to patent US20150322083A1, “(THIENO[2,3-b][1,5]BENZOXAZEPIN-4-YL)PIPERAZIN-1-YL COMPOUNDS AS SELECTIVE 5-HT2A INVERSE AGONISTS” (Eli Lilly and Company, priority 2014, published 2015):

What was measured:
Adrenergic alpha1B = Adrenergic alpha1B (Homo sapiens, UniProt P35368); assay: Adrenergic alpha1B binding
Procedure: Curves are evaluated using a 4-parameter logistic nonlinear equation to obtain the concentration of competitor causing 50% inhibition of radioligand binding (IC50). Equilibrium dissociation constants (Ki) are calculated according to the equation Ki=IC50/(1+L/Kd), where L equals the concentration of radioligand used in the experiment and Kd equals the equilibrium dissociation constant of the radioligand for the receptor, determined from standard saturation analysis or homologous competition experiments. Reported values for Ki, where n values are indicated, are shown as geometric mean±the standard error of the mean (SEM), with the number of replicate determinations indicated by n. Geometric means are calculated by the equation GeoMean=10̂(Average(log Ki 1+log Ki 2+ . . . log Ki n)/[…]).
Further, the compounds of the invention may be tested in binding assays and functional activity assays by well known methods for other physiologically important receptors such as, but not limited to, the hERG channel, other serotonin receptors (specifically 5-HT1B receptors, lack of agonist activity at 5-HT2B receptors, 5-HT2C, 5-HT5, 5-HT6, and 5-HT7 receptors), dopaminergic receptors (specifically D1, D2, and D3), H1 receptors, GABAA receptors, adrenergic receptors and monoamine transporters.

[1] = tested on: sleep and locomotor activity of rats; assay: Sleep and behavioral monitoring in rats (EEG, EMG, motion); format: in vivo; details: rat; for Rebound Insomnia, Adj. Mean: NREM + REM sleep in 7th-9th hours post-treatment; for Rebound Insomnia, Adj. Mean / REM inhibition, Adj. Mean / Cumulative NREM sleep, Adj. Mean / Cumulative Total sleep, Adj. Mean / Locomotor Activity Intensity, Adj. Mean: difference from vehicle; for REM inhibition, Adj. Mean: REM sleep in first 12 hr. post-treatment; for Average Sleep Bout, Adj. Mean / Longest Sleep Bout / Cumulative NREM sleep, Adj. Mean / Cumulative Total sleep, Adj. Mean / Locomotor Activity Intensity, Adj. Mean: first 6 hr. post-treatment
Description: Sleep and behavioral monitoring in rats: The compounds of the present invention may be tested in rats for their ability to increase the amount of sleep or decrease sleep interruption or both without undesired effects such as inhibition of REM sleep, waking motor impairment, and/or rebound insomnia. Test animals are continuously monitored by electro-encephalograms (EEG), electromyograms (EMG), and motion to measure cumulative nonREM sleep, cumulative total sleep, average sleep bout duration, longest sleep bout duration, rebound insomnia, REM sleep inhibition and locomotor activity intensity during wakefulness. Methods for such studies are known in the art (see for example methods described in Edgar D M, Seidel W F. Modafinil induces wakefulness without intensifying motor activity or subsequent rebound hypersomnolence in the rat. J Pharmacology & Experimental Therapeutics 1997; 283: 757-769; van Gelder R N, Edgar D M, Dement W C. Real-time automated sleep scoring: validation of a microcomputer-based system for mice. Sleep 1991, 14: 48-55; and Gross B A, Walsh C M, Turakhia A A, Booth V, Mashour G A, Poe G R. Open-source logic-based automated sleep scoring software using electrophysiological recordings in rats. J Neurosci Methods. 2009; 184(1):10-8.) Studies are conducted as follows:
Animal preparation. Adult, male Wistar rats (approximately 270-300 g at time of surgery) are surgically fitted for chronic recording of EEG, EMG, and motion as follows: Rats are surgically prepared with a cranial implant consisting of four stainless steel screws for EEG recording (two frontal [3.9 mm anterior from bregma, and ±2.0 mm mediolaterally] and two occipital [6.4 mm posterior from bregma, ±5.5 mm mediolaterally]), and with two Teflon-coated stainless steel wires for EMG recording (positioned under the nuchal trapezoid muscles). All leads are soldered to a miniature connector (Microtech, Boothwyn, Pa.) prior to surgery. The implant assembly is affixed to the skull by the combination of the stainless steel EEG recording screws, cyanoacrylate applied between the implant connector and skull, and dental acrylic. Locomotor activity is monitored via a miniature transmitter (Minimitter PDT4000G, Philips Respironics, Bend, Oreg.) surgically placed into the abdomen. At least 3 weeks are allowed for recovery.
Recording environment. Each rat is housed individually within a microisolator cage modified with an inserted polycarbonate filter-top riser to allow more vertical headroom. A flexible cable that minimally restricts movement is connected at one end to a commutator afixed to the cage top and at the other end to the animal's cranial implant. Each cage is located within separate, ventilated compartments of a stainless steel sleep-wake recording chamber. Food and water are available ad libitum and the ambient temperature is maintained at about 23±1° C. A 24-hr light-dark cycle (LD 12:12) using fluorescent light is maintained throughout the study. Relative humidity averages approximately 50%. Animals are undisturbed for at least 30 hrs before and after each treatment.
Study design and dosing. The vehicle (placebo, methylcellulose 15 centipoise 0.25% in water) or one of the test compound dose levels is administered orally at 1 mL/kg pseudo-randomly such that no rat receives the same treatment twice, and no rat receives more than two of the 8 treatments in any one study. Each rat is removed from its cage for about a minute to be weighed and treated. At least 6 days “washout” period precede and follow each treatment.
Data collection. […]

[2] = PO, 6 hr. after treatment, 4 parameter logistic regression

Sequence of Adrenergic alpha1B (P35368 whole entry): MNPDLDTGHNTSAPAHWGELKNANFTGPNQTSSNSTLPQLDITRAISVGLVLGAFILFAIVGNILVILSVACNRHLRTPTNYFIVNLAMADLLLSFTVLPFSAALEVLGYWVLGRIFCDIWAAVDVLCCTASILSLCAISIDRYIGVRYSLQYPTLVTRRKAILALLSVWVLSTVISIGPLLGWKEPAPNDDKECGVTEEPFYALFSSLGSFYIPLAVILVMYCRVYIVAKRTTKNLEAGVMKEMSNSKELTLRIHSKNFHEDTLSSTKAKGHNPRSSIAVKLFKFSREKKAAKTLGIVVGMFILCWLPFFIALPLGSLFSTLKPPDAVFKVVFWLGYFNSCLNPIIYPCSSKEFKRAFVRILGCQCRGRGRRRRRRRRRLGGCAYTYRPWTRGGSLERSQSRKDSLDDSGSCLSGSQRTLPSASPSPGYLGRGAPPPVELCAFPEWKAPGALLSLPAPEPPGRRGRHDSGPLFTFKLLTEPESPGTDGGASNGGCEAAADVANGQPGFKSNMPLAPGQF

Cc1ccc2c(c1)Oc1sc(SC(C)C)cc1C(N1CCN(CC(C)(C)C(=O)O)CC1)=N2 [Example 1, 3-[4-(2-isopropylsulfanyl-8-methyl-thieno[2,3-b][1,5]benzoxazepin-4-yl)piperazin-1-yl]-2,2-dimethyl-propanoic acid]
Ki (Adrenergic alpha1B): > 15.8 µM
Rebound Insomnia, Adj. Mean ([1]; 0.1 mg/kg PO): -0.4 min
REM inhibition, Adj. Mean ([1]; 0.1 mg/kg PO): 0.5 min
Average Sleep Bout, Adj. Mean ([1]; 0.1 mg/kg PO): 1.09 n-fold increase over vehicle controls
Longest Sleep Bout ([1]; 0.1 mg/kg PO): 0.85 n-fold increase over vehicle controls
Cumulative NREM sleep, Adj. Mean ([1]; 0.1 mg/kg PO): 14.6 min
Cumulative Total sleep, Adj. Mean ([1]; 0.1 mg/kg PO): 13.1 min
Locomotor Activity Intensity, Adj. Mean ([1]; 0.1 mg/kg PO): −1.31 LMA counts per minute of EEG-defined wakefulness
Rebound Insomnia, Adj. Mean ([1]; 0.25 mg/kg PO): -1.0 min
REM inhibition, Adj. Mean ([1]; 0.25 mg/kg PO): 1.4 min
Average Sleep Bout, Adj. Mean ([1]; 0.25 mg/kg PO): 1.32 n-fold increase over vehicle controls
Longest Sleep Bout ([1]; 0.25 mg/kg PO): 1.49 n-fold increase over vehicle controls
Cumulative NREM sleep, Adj. Mean ([1]; 0.25 mg/kg PO): 17.8 min
Cumulative Total sleep, Adj. Mean ([1]; 0.25 mg/kg PO): 21.1 min
Locomotor Activity Intensity, Adj. Mean ([1]; 0.25 mg/kg PO): −1.22 LMA counts per minute of EEG-defined wakefulness
Rebound Insomnia, Adj. Mean ([1]; 0.5 mg/kg PO): 4.4 min
REM inhibition, Adj. Mean ([1]; 0.5 mg/kg PO): 6.6 min
Average Sleep Bout, Adj. Mean ([1]; 0.5 mg/kg PO): 1.75 n-fold increase over vehicle controls
Longest Sleep Bout ([1]; 0.5 mg/kg PO): 1.79 n-fold increase over vehicle controls
Cumulative NREM sleep, Adj. Mean ([1]; 0.5 mg/kg PO): 24.1 min
Cumulative Total sleep, Adj. Mean ([1]; 0.5 mg/kg PO): 28.2 min
Locomotor Activity Intensity, Adj. Mean ([1]; 0.5 mg/kg PO): −1.49 LMA counts per minute of EEG-defined wakefulness
Rebound Insomnia, Adj. Mean ([1]; 1 mg/kg PO): 1.5 min
REM inhibition, Adj. Mean ([1]; 1 mg/kg PO): 5.6 min
Average Sleep Bout, Adj. Mean ([1]; 1 mg/kg PO): 1.71 n-fold increase over vehicle controls
Longest Sleep Bout ([1]; 1 mg/kg PO): 1.89 n-fold increase over vehicle controls
Cumulative NREM sleep, Adj. Mean ([1]; 1 mg/kg PO): 30.0 min
Cumulative Total sleep, Adj. Mean ([1]; 1 mg/kg PO): 31.4 min
Locomotor Activity Intensity, Adj. Mean ([1]; 1 mg/kg PO): −4.04 LMA counts per minute of EEG-defined wakefulness
Rebound Insomnia, Adj. Mean ([1]; 3 mg/kg PO): 8.8 min
REM inhibition, Adj. Mean ([1]; 3 mg/kg PO): -1.4 min
Average Sleep Bout, Adj. Mean ([1]; 3 mg/kg PO): 1.75 n-fold increase over vehicle controls
Longest Sleep Bout ([1]; 3 mg/kg PO): 2.17 n-fold increase over vehicle controls
Cumulative NREM sleep, Adj. Mean ([1]; 3 mg/kg PO): 31.5 min
Cumulative Total sleep, Adj. Mean ([1]; 3 mg/kg PO): 32.8 min
Locomotor Activity Intensity, Adj. Mean ([1]; 3 mg/kg PO): −1.86 LMA counts per minute of EEG-defined wakefulness
Rebound Insomnia, Adj. Mean ([1]; 10 mg/kg PO): 2.5 min
REM inhibition, Adj. Mean ([1]; 10 mg/kg PO): -4.4 min
Average Sleep Bout, Adj. Mean ([1]; 10 mg/kg PO): 2.01 n-fold increase over vehicle controls
Longest Sleep Bout ([1]; 10 mg/kg PO): 2.29 n-fold increase over vehicle controls
Cumulative NREM sleep, Adj. Mean ([1]; 10 mg/kg PO): 38.3 min
Cumulative Total sleep, Adj. Mean ([1]; 10 mg/kg PO): 39.1 min
Locomotor Activity Intensity, Adj. Mean ([1]; 10 mg/kg PO): −1.90 LMA counts per minute of EEG-defined wakefulness
Rebound Insomnia, Adj. Mean ([1]; 20 mg/kg PO): 2.1 min
REM inhibition, Adj. Mean ([1]; 20 mg/kg PO): -9.3 min
Average Sleep Bout, Adj. Mean ([1]; 20 mg/kg PO): 1.88 n-fold increase over vehicle controls
Longest Sleep Bout ([1]; 20 mg/kg PO): 1.90 n-fold increase over vehicle controls
Cumulative NREM sleep, Adj. Mean ([1]; 20 mg/kg PO): 40.2 min
Cumulative Total sleep, Adj. Mean ([1]; 20 mg/kg PO): 38.0 min
Locomotor Activity Intensity, Adj. Mean ([1]; 20 mg/kg PO): −0.59 LMA counts per minute of EEG-defined wakefulness
apparent LMI impairment (in words) ([1]; 1 mg/kg PO): statistically significant at that dose
REM sleep inhibition versus threshold value of -10 min. (in words) ([1]; 20 mg/kg PO): exceeded the threshhold value
effect on cumulative NREM sleep time and cumulative total sleep time (in words) ([1]; PO): statistically significant increase
Estimated efficacy dose, Average sleep bout (1.5-fold increase) [1, 2]: 0.33 mg/kg
Estimated efficacy dose, Longest sleep bout (1.75-fold increase) [1, 2]: 0.45 mg/kg
Estimated efficacy dose, NREM accumulation = 30 min. [1, 2]: 1.5 mg/kg
Estimated efficacy dose, Total sleep accumulation = 25 min. [1, 2]: 0.39 mg/kg
rebound insomnia or REM sleep inhibition (in words) ([1]; PO, at up to 10 times the conservative efficacy dose): without statistically significant rebound insomnia or REM sleep inhibition
